Test results from article PMC6416464 (Drug Metabolism Letters, 2018).
Like-named read-outs stand apart in the source and are kept apart here.

Legend:
[1] = biological target: T1, CYP3A4 (Homo sapiens, UniProt P08684); details: microsomes
[2] = biological target: rCYP2C19 (Homo sapiens, UniProt P33261); experiment: Metabolic stability / reaction phenotyping with recombinant human CYP2C19; details: for % Metabolized at 30 min Incubation with Human Liver Fractions/Enzymes rCYP2C19: 1 µM test compound, 100 pmol/mL
[3] = Metabolic stability, incubation with human liver microsomes; details: 1 µM test compound, 0.5 mg/mL protein
[4] = biological target: rCYP3A4 (Homo sapiens, UniProt P08684)
[5] = biological target: rCYP2D6 (Homo sapiens, UniProt P10635); experiment: Metabolic stability / reaction phenotyping with recombinant human CYP2D6; details: for % Metabolized at 30 min Incubation with Human Liver Fractions/Enzymes rCYP2D6: 1 µM test compound, 100 pmol/mL
[6] = biological target: T2, rCYP1A2 (Homo sapiens, UniProt P05177); experiment: Metabolic stability / reaction phenotyping with recombinant human CYP1A2; details: for % Metabolized at 30 min Incubation with Human Liver Fractions/Enzymes rCYP1A2: 1 µM test compound, 100 pmol/mL
T2 sequence (P05177 1-516): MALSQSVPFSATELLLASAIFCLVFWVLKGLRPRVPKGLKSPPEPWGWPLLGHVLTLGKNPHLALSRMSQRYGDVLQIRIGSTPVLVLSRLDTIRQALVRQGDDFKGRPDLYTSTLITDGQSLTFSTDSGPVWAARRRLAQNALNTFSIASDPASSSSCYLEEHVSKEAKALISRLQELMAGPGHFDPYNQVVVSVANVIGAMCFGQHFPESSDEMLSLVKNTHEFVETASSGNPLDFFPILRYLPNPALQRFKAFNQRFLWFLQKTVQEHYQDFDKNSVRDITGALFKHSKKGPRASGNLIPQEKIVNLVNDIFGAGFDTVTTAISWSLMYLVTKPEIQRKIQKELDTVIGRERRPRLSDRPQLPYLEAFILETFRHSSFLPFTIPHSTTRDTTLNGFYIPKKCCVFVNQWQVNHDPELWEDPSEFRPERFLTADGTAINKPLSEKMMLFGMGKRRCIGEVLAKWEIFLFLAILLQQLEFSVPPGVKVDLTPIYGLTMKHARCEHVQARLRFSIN

[7] = biological target: T1, CYP3A4; experiment: in vitro; details: microsomes, pH 7.4
[8] = biological target: CYP2D6 (Homo sapiens, UniProt P10635); experiment: CYP inhibition in human liver microsomes, CYP2D6; details: HLM, NI: No Inhibitin
[9] = biological target: T3, rCYP2C8 (Homo sapiens, UniProt P10632); experiment: Metabolic stability / reaction phenotyping with recombinant human CYP2C8; details: for % Metabolized at 30 min Incubation with Human Liver Fractions/Enzymes rCYP2C8: 1 µM test compound, 100 pmol/mL
T3 sequence (P10632 1-490): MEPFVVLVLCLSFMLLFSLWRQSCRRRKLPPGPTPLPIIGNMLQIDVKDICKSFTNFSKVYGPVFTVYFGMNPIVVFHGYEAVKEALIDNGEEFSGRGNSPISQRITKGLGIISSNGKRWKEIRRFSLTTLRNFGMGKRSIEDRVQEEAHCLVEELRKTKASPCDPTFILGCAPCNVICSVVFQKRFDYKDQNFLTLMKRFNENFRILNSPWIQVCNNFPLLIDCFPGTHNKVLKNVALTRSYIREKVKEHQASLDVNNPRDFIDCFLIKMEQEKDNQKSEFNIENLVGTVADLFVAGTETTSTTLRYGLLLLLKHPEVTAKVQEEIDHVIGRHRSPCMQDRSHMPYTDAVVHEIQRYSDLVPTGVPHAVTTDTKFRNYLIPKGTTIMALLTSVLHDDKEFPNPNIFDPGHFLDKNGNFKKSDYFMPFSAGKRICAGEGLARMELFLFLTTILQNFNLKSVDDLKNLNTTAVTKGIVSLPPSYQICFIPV

[10] = biological target: rCYP2C9 (Homo sapiens, UniProt P11712); experiment: Metabolic stability / reaction phenotyping with recombinant human CYP2C9; details: for % Metabolized at 30 min Incubation with Human Liver Fractions/Enzymes rCYP2C9: 1 µM test compound, 100 pmol/mL
[11] = biological target: T1, CYP3A4; experiment: in vitro; details: microsomes, pH 7.4, % Inhibition of Control Activity CYP3A4 (substrate, testosterone)
[12] = biological target: CYP2C9 (Homo sapiens, UniProt P11712); experiment: CYP inhibition in human liver microsomes, CYP2C9; details: HLM; for % Inhibition of Control Activity CYP2C9: NI: No Inhibitin
[13] = biological target: T4, CYP2C8 (Homo sapiens, UniProt P10632); experiment: CYP inhibition in human liver microsomes, CYP2C8; details: for % Inhibition of Control Activity CYP2C8: NI: No Inhibitin
T4 sequence (P10632 1-490): T3 sequence (P10632 1-490)

[14] = Metabolic stability, incubation with human liver cytosol; format: in vitro ADME; details: 1 µM test compound, 1 mg/mL protein
[15] = cited from earlier work
[16] = biological target: T5, CYP1A2 (Homo sapiens, UniProt P05177); experiment: CYP inhibition in human liver microsomes, CYP1A2; details: HLM; for % Inhibition of Control Activity CYP1A2: NI: No Inhibitin
T5 sequence (P05177 1-516): T2 sequence (P05177 1-516)

[17] = biological target: CYP2C19 (Homo sapiens, UniProt P33261); experiment: CYP inhibition in human liver microsomes, CYP2C19; details: HLM; for % Inhibition of Control Activity CYP2C19: NI: No Inhibitin
[18] = human, recombinant human CYP2C19, 1 µM, pH 7.4
[19] = human, recombinant enzyme, pH 7.4
[20] = human, recombinant human CYP2D6, 1 µM, pH 7.4
[21] = human, recombinant human CYP1A2, 1 µM, pH 7.4
[22] = human, recombinant human CYP2C8, 1 µM, pH 7.4
[23] = human, human liver microsomes, pH 7.4, probe paclitaxel

Chain of rCYP2C19 (P33261 whole entry): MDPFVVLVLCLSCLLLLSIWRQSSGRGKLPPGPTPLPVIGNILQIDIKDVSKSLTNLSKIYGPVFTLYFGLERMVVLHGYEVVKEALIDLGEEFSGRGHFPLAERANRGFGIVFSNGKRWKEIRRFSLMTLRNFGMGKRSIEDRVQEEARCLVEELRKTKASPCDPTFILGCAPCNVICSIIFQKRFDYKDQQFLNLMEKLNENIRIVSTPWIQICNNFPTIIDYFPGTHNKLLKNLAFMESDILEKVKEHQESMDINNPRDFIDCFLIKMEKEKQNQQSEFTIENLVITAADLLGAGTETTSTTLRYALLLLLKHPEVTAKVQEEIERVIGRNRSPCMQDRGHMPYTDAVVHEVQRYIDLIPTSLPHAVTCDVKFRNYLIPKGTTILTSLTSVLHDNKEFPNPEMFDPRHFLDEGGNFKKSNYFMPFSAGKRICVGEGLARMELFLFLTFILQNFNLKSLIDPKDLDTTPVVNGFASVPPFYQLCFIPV
Chain of CYP2C19 (P33261 whole entry): as above
Chain of CYP2D6 (P10635 whole entry): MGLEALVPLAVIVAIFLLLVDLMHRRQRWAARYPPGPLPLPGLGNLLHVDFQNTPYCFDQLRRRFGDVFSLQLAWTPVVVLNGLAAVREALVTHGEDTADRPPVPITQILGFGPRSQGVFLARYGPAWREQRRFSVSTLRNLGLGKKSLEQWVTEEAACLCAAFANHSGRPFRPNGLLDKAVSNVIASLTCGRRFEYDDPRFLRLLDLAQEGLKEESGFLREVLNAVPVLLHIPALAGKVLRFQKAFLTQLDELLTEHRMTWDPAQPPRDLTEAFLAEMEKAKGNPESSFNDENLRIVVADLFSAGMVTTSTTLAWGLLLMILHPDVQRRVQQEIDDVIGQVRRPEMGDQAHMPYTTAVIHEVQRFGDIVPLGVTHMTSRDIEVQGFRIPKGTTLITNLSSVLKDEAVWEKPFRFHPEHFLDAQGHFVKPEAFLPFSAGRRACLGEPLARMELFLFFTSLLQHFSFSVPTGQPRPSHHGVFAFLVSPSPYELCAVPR
Chain of rCYP2D6 (P10635 whole entry): as above
Chain of CYP2C9 (P11712 whole entry): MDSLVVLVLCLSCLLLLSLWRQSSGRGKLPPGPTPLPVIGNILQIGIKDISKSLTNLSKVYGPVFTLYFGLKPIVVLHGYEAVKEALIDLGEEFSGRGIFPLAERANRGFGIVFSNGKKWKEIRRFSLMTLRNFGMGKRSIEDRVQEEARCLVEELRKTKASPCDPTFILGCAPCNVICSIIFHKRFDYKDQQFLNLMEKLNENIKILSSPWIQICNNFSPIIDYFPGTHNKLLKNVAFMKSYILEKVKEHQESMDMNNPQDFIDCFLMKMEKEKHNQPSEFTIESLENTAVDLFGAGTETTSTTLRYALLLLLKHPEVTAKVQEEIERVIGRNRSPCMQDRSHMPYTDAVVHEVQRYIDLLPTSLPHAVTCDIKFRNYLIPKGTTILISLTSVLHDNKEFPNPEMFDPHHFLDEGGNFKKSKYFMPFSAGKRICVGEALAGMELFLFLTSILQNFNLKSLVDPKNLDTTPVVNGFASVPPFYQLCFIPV
Chain of rCYP2C9 (P11712 whole entry): as above
T1 sequence (P08684 2-503): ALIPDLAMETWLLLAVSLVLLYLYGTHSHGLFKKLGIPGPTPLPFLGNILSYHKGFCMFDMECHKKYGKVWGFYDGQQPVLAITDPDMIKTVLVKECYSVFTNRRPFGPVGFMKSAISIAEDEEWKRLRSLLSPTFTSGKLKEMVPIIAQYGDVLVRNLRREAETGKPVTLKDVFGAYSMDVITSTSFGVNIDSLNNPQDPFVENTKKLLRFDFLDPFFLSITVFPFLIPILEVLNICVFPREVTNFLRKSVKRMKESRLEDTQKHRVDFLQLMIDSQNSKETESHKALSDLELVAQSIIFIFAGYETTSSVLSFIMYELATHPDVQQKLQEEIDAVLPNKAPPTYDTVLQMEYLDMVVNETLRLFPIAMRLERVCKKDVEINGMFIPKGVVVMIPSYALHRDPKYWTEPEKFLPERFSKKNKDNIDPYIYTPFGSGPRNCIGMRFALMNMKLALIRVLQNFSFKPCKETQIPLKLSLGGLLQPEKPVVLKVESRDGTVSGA
Chain of rCYP3A4 (P08684 whole entry): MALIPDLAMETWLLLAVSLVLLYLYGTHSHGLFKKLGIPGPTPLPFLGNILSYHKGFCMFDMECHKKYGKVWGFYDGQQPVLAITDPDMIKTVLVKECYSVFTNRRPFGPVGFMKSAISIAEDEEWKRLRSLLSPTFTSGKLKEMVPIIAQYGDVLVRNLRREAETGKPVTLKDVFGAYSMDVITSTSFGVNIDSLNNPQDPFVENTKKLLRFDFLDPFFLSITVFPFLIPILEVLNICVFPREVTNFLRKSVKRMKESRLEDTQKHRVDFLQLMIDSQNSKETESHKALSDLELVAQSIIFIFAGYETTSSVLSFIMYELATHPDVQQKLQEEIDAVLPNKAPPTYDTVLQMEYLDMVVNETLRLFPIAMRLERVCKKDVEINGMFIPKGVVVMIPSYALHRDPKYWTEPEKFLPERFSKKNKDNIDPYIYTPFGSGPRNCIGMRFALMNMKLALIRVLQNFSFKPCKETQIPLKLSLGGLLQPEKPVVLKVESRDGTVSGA

O=C1Cc2cc(CCN3CCN(c4nsc5ccccc45)CC3)c(Cl)cc2N1 [Ziprasidone, ziprasidone, reference compound]
% Inhibition of Control Activity CYP3A4 (substrate, testosterone) ([1]; human, 10 µM, pH 7.4): 33.06% | % Metabolized at 30 min Incubation with Human Liver Fractions/Enzymes rCYP2C19 [2]: 21.17% | % Contribution of CYP Enzymes (fmCYP) in Metabolism, CYP2C19 [2, 18]: 2.44% | Predicted Microsomal Clint, CYP2C19 [2, 18]: 1.507 µL/min/mg Protein | rCYP Clint, CYP2C19 [2, 18]: 0.079 µL/min/pmol | % Metabolized at 30 min Incubation with Human Liver Fractions/Enzymes HLM [3]: 83.11% | Predicted Microsomal Clint, CYP3A4 ([4]; human, pH 7.4): 53.530 µL/min/mg Protein | % Metabolized at 30 min Incubation with Human Liver Fractions/Enzymes rCYP3A4 ([4]; human, recombinant enzyme, 0.5 h, pH 7.4): 76.47% | % Contribution of CYP Enzymes (fmCYP) in Metabolism, CYP3A4 [4, 19]: 86.67% | rCYP Clint, CYP3A4 [4, 19]: 0.482 µL/min/pmol | % Metabolized at 30 min Incubation with Human Liver Fractions/Enzymes rCYP2D6 [5]: 3.73% | % Contribution of CYP Enzymes (fmCYP) in Metabolism, CYP2D6 [5, 20]: 0.21% | Predicted Microsomal Clint, CYP2D6 [5, 20]: 0.127 µL/min/mg Protein | rCYP Clint, CYP2D6 [5, 20]: 0.013 µL/min/pmol | % Metabolized at 30 min Incubation with Human Liver Fractions/Enzymes rCYP1A2 [6]: 5.98% | % Contribution of CYP Enzymes (fmCYP) in Metabolism, CYP1A2 [6, 21]: 1.73% | Predicted Microsomal Clint, CYP1A2 [6, 21]: 1.069 µL/min/mg Protein | rCYP Clint, CYP1A2 [6, 21]: 0.021 µL/min/pmol | inhibition at 2 µM [7]: 22% | inhibition at 10 µM [7]: 31.1% | % Inhibition of Control Activity CYP2D6 ([8]; inhibitor 10 µM, 10 µM): 11.70% | % Metabolized at 30 min Incubation with Human Liver Fractions/Enzymes rCYP2C8 [9]: 22.84% | % Contribution of CYP Enzymes (fmCYP) in Metabolism, CYP2C8 [9, 22]: 8.96% | Predicted Microsomal Clint, CYP2C8 [9, 22]: 5.532 µL/min/mg Protein | rCYP Clint, CYP2C8 [9, 22]: 0.086 µL/min/pmol | % Metabolized at 30 min Incubation with Human Liver Fractions/Enzymes rCYP2C9 [10]: 0.00% | inhibition at 2 µM [11]: 8.3% | % Inhibition of Control Activity CYP2C9 ([12]; inhibitor 10 µM, 10 µM): 1.44% | inhibition at 2 µM [13, 23]: < 0% | inhibition at 10 µM [13, 23]: 12% | % Metabolized at 30 min Incubation with Human Liver Fractions/Enzymes Cytosol [14]: 10.86%

triclabendazole sulfoxide
% Inhibition of Control Activity CYP3A4 (substrate, testosterone) ([1]; 2 µM): 0.18% | % Inhibition of Control Activity CYP3A4 (substrate, testosterone) ([1]; 10 µM): 14.43% | Predicted Microsomal Clint, CYP2C19 [2]: 6.442 µL/min/mg Protein | % Metabolized at 30 min Incubation with Human Liver Fractions/Enzymes rCYP2C19 [2]: 63.84% | rCYP Clint, CYP2C19 ([2]; human, recombinant enzyme): 0.339 µL/min/pmol | % Contribution of CYP Enzymes (fmCYP) in Metabolism, CYP2C19 ([2]; recombinant enzyme): 9.31% | % Metabolized at 30 min Incubation with Human Liver Fractions/Enzymes HLM [3]: 18.08% | Predicted Microsomal Clint, CYP3A4 [4]: 1.626 µL/min/mg Protein | % Metabolized at 30 min Incubation with Human Liver Fractions/Enzymes rCYP3A4 ([4]; 1 µM test compound, 100 pmol/mL, 30 min): 4.30% | rCYP Clint, CYP3A4 ([4]; human, recombinant enzyme): 0.015 µL/min/pmol | % Contribution of CYP Enzymes (fmCYP) in Metabolism, CYP3A4 ([4]; recombinant enzyme): 2.35% | Predicted Microsomal Clint, CYP2D6 [5]: 0.125 µL/min/mg Protein | % Metabolized at 30 min Incubation with Human Liver Fractions/Enzymes rCYP2D6 [5]: 3.68% | rCYP Clint, CYP2D6 ([5]; human, recombinant enzyme): 0.012 µL/min/pmol | % Contribution of CYP Enzymes (fmCYP) in Metabolism, CYP2D6 ([5]; recombinant enzyme): 0.18% | Predicted Microsomal Clint, CYP1A2 [6]: 3.968 µL/min/mg Protein | % Metabolized at 30 min Incubation with Human Liver Fractions/Enzymes rCYP1A2 [6]: 20.46% | rCYP Clint, CYP1A2 ([6]; human, recombinant enzyme): 0.076 µL/min/pmol | % Contribution of CYP Enzymes (fmCYP) in Metabolism, CYP1A2 ([6]; recombinant enzyme): 5.73% | Cmax ([15]; human patients at therapeutic doses of triclabendazole): 38.6 µM | half-life ([15]; humans): 11 to 12 h | peak concentration ([15]; humans, standard dose of triclabendazole of 10 mg/kg): 38.6 µM | % Inhibition of Control Activity CYP1A2 ([16]; inhibitor 2 µM): 39.42% | % Inhibition of Control Activity CYP1A2 ([16]; inhibitor 10 µM): 69.42% | IC50 ([16]; read-out: IC50 CYP 1A2): 4.19 µM | % Inhibition of Control Activity CYP2D6 ([8]; inhibitor 2 µM): 1.63% | % Inhibition of Control Activity CYP2D6 ([8]; inhibitor 10 µM): 3.13% | % Metabolized at 30 min Incubation with Human Liver Fractions/Enzymes rCYP2C8 [9]: 0.00% | Predicted Microsomal Clint, CYP2C9 [10]: 57.057 µL/min/mg Protein | % Metabolized at 30 min Incubation with Human Liver Fractions/Enzymes rCYP2C9 [10]: 83.19% | rCYP Clint, CYP2C9 ([10]; human, recombinant enzyme): 0.594 µL/min/pmol | % Contribution of CYP Enzymes (fmCYP) in Metabolism, CYP2C9 ([10]; recombinant enzyme): 82.43% | % Inhibition of Control Activity CYP2C19 ([17]; inhibitor 2 µM): 84.33% | % Inhibition of Control Activity CYP2C19 ([17]; inhibitor 10 µM): 88.87% | IC50 ([17]; read-out: IC50 CYP 2C19): 0.22 µM | % Inhibition of Control Activity CYP2C9 ([12]; inhibitor 2 µM): 49.60% | % Inhibition of Control Activity CYP2C9 ([12]; inhibitor 10 µM): 86.62% | IC50 ([12]; read-out: IC50 CYP 2C9): 1.95 µM | % Inhibition of Control Activity CYP2C8 ([13]; inhibitor 2 µM, HLM): 11.20% | % Inhibition of Control Activity CYP2C8 ([13]; inhibitor 10 µM, HLM): 53.67% | IC50 ([13]; read-out: IC50 CYP 2C8, HLM): 8.95 µM | % Metabolized at 30 min Incubation with Human Liver Fractions/Enzymes Cytosol [14]: 0.00%
